Source: ChEMBL document CHEMBL1139379, “Design, structure-activity relationships and in vivo characterization of 4-amino-3-benzimidazol-2-ylhydroquinolin-2-ones: a novel class of receptor tyrosine kinase inhibitors” (J Med Chem, 2009)

How the values were obtained:
[1] = target: Vascular endothelial growth factor receptor 2 (Homo sapiens, UniProt P35968)
[2] = Inhibition of VEGF-mediated proliferation of HMVEC after 72 hrs; type: functional, cell-based; details: Homo sapiens
[3] = target: Platelet-derived growth factor receptor beta (Homo sapiens, UniProt P09619); assay: Inhibition of human recombinant PDGFRbeta
[4] = target: Fibroblast growth factor receptor 1 (Homo sapiens, UniProt P11362); assay: Inhibition of human recombinant FGFR1
[5] = Volume of distribution at steady state in mouse at 5 mg/kg, iv; type: ADME, organism-based; set-up: dose 5 mg/kg, route intravenous; details: in vivo, read-out: Vdss
[6] = Cmax in mouse at 20 mg/kg, po; type: ADME, organism-based; set-up: dose 20 mg/kg, route oral; details: in vivo
[7] = Oral bioavailability in rat at 20 mg/kg; type: ADME, organism-based; details: in vivo
[8] = AUC in rat at 20 mg/kg, po; type: ADME, organism-based; set-up: dose 20 mg/kg, route oral; details: plasma
MV4-11 [9] = assay: Antitumor activity against PDGFRbeta expressing human MV4-11 cells xenografted SCID-NOD mouse assessed as tumor growth inhibition at 30 mg/kg/day, po; type: functional; details: read-out: TGI
[10] = Half life in rat at 5 mg/kg, iv; type: ADME, organism-based; set-up: dose 5 mg/kg, route intravenous; details: in vivo
[11] = Half life in mouse at 5 mg/kg, iv; type: ADME, organism-based; set-up: dose 5 mg/kg, route intravenous; details: in vivo
[12] = Cmax in rat at 20 mg/kg, po; type: ADME, organism-based; set-up: dose 20 mg/kg, route oral; details: in vivo
DU-145 [13] = assay: Antitumor activity against VEGFR expressing human DU145 cells xenografted nude mouse assessed as tumor growth inhibition at 10 mg/kg/day, po; type: functional; details: read-out: TGI
[14] = Antitumor activity against human KM12L4A cells xenografted nude mouse; type: functional
[15] = AUC in mouse at 20 mg/kg, po; type: ADME, organism-based; set-up: dose 20 mg/kg, route oral; details: plasma
[16] = Clearance in mouse at 5 mg/kg, iv; type: ADME, organism-based; set-up: dose 5 mg/kg, route intravenous; details: in vivo
[17] = Antitumor activity against PDGFRbeta expressing human KM12L4A cells xenografted nude mouse assessed as tumor growth inhibition at 100 mg/kg/day, po; type: functional; details: read-out: TGI
[18] = Volume of distribution at steady state in rat at 5 mg/kg, iv; type: ADME, organism-based; set-up: dose 5 mg/kg, route intravenous; details: in vivo, read-out: Vdss
MV4-11 [19] = assay: Antitumor activity against cKit expressing human MV4-11 cells xenografted SCID-NOD mouse assessed as tumor growth inhibition at 10 mg/kg/day, po; type: functional; details: read-out: TGI
Mus musculus [20] = species on record: Mus musculus; assay: Antiangiogenic activity in BDF1 mouse Matrigel model assessed as inhibition of bFGF-mediated angiogenesis; type: functional
MV4-11 [21] = assay: Antitumor activity against VEGFR expressing human MV4-11 cells xenografted SCID-NOD mouse assessed as tumor growth inhibition at 5 mg/kg/day, po; type: functional; details: read-out: TGI
[22] = Oral bioavailability in mouse at 20 mg/kg; type: ADME, organism-based; details: in vivo
DU-145 [23] = assay: Antitumor activity against PDGFRbeta expressing human DU145 cells xenografted nude mouse assessed as tumor growth inhibition at 30 mg/kg/day, po; type: functional; details: read-out: TGI
[24] = Antitumor activity against PDGFRbeta expressing human KM12L4A cells xenografted nude mouse assessed as tumor growth inhibition at 30 mg/kg/day, po; type: functional; details: read-out: TGI
[25] = Clearance in rat at 5 mg/kg, iv; type: ADME, organism-based; set-up: dose 5 mg/kg, route intravenous; details: in vivo
DU-145 [26] = assay: Antitumor activity against human DU145 cells xenografted nude mouse; type: functional
MV4-11 [27] = assay: Antitumor activity against FLT3 ITD expressing human MV4-11 cells xenografted SCID-NOD mouse assessed as tumor growth inhibition at 1 mg/kg/day, po; type: functional; details: read-out: TGI
[28] = Antitumor activity against VEGFR expressing human KM12L4A cells xenografted nude mouse assessed as tumor growth inhibition at 10 mg/kg/day, po; type: functional; details: read-out: TGI
DU-145 [29] = assay: Antitumor activity against FGFR expressing human DU145 cells xenografted nude mouse assessed as tumor growth inhibition at 100 mg/kg/day, po; type: functional; details: read-out: TGI
Mus musculus [30] = assay: Antiangiogenic activity in BDF1 mouse Matrigel model assessed as inhibition of bFGF-mediated angiogenesis at 3 mg/kg, po for 8 days by colorimetric assay; type: functional; set-up: scale not given: the % may be the effect or the level left
MV4-11 [31] = assay: Antitumor activity against human MV4-11 cells xenografted SCID-NOD mouse; type: functional

Platelet-derived growth factor receptor beta, sequence (P09619 whole entry): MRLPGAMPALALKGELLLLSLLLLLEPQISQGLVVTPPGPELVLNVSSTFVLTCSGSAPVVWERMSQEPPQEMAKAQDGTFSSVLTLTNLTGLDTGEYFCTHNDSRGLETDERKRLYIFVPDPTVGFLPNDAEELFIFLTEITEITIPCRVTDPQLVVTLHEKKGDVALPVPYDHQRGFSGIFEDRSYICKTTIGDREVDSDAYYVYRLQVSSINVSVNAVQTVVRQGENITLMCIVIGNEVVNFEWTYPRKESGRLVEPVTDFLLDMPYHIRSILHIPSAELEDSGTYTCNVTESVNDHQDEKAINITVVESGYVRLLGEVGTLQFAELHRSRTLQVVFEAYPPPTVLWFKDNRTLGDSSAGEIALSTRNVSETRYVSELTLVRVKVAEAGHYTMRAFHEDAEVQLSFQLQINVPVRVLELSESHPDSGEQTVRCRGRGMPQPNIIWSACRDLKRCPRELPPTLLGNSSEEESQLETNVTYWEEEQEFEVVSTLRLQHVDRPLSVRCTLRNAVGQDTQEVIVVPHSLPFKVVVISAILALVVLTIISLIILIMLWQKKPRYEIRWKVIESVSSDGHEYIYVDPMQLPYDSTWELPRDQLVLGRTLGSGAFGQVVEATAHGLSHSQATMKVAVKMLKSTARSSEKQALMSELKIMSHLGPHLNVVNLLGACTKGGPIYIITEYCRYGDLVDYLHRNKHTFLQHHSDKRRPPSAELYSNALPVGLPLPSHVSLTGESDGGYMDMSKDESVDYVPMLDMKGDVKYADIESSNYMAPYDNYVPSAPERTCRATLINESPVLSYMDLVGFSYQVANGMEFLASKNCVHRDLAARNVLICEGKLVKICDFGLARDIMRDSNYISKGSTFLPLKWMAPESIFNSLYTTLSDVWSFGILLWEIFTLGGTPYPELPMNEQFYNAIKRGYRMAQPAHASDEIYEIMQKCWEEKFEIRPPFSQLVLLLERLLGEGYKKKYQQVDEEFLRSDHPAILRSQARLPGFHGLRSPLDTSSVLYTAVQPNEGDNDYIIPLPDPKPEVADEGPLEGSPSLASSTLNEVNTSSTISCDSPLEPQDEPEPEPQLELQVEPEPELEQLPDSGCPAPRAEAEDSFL
Fibroblast growth factor receptor 1, sequence (P11362 whole entry): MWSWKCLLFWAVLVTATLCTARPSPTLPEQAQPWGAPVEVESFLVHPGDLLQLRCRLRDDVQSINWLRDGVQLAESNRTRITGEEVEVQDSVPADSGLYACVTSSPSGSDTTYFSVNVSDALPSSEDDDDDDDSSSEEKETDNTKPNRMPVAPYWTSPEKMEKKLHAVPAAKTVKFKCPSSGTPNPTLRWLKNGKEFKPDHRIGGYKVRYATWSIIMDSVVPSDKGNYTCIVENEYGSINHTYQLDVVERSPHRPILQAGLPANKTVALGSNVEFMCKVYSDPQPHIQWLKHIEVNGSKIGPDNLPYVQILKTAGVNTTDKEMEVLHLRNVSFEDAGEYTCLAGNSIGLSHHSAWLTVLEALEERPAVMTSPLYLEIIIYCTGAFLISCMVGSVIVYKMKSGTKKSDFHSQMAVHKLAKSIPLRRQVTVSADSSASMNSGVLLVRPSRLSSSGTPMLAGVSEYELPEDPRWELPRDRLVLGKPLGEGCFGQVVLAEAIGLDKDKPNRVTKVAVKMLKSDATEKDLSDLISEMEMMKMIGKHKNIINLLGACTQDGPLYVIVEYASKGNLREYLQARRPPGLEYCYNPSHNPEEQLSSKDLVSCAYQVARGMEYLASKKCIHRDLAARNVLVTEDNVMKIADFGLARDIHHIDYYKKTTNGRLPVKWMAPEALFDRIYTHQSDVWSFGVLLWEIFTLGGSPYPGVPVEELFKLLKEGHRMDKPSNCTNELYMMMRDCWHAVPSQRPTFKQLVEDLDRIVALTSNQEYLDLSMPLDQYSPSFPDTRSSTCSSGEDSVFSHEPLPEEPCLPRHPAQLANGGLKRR
Vascular endothelial growth factor receptor 2, sequence (P35968 whole entry): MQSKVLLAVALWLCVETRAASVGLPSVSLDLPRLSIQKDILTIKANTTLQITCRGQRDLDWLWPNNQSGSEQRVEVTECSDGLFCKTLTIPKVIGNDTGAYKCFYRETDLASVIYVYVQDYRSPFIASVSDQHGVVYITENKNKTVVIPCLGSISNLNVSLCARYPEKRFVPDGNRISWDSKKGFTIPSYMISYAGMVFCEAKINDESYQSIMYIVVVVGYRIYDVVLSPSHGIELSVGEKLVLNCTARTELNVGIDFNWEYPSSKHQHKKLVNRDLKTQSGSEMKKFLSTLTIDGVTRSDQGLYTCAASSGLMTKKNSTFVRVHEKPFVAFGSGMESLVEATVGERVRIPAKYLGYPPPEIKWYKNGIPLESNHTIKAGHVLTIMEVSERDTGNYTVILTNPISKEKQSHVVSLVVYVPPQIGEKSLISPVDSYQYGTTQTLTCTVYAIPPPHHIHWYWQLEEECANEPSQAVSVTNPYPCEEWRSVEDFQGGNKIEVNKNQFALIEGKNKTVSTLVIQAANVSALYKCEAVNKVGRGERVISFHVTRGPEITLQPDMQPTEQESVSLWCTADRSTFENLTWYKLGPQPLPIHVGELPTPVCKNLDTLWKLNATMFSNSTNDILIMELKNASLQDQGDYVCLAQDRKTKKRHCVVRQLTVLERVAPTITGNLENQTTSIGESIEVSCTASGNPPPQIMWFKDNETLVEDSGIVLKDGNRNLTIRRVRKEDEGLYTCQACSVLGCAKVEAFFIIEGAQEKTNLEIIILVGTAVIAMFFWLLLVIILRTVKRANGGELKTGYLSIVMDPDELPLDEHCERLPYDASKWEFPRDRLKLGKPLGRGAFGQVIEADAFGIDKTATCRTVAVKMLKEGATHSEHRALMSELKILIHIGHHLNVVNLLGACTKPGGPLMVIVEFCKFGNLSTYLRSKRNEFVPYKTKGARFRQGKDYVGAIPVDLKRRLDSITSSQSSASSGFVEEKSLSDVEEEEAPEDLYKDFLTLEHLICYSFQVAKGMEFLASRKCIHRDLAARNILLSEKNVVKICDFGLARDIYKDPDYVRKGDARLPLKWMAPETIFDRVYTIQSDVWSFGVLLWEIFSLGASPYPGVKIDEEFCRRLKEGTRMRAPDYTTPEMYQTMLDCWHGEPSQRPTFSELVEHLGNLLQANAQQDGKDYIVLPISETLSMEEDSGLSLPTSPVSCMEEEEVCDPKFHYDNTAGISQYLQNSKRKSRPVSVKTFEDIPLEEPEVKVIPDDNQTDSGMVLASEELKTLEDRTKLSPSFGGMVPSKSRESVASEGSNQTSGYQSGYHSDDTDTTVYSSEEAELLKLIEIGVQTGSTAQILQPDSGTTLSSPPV

CNc1cccc2[nH]c(=O)c(-c3nc4ccc(N5CCN(C)CC5)cc4[nH]3)c(N)c12
IC50 [1]: 53 nM
EC50 [2]: 17 nM
IC50 [3]: 2 nM
IC50 [4]: 15 nM

CN1CCN(c2ccc3nc(-c4c(N)c5cc(F)ccc5[nH]c4=O)[nH]c3c2)CC1
IC50 [1]: 78 nM
EC50 [2]: 10 nM
IC50 [3]: 1 nM
IC50 [4]: 40 nM

CN1CCN(c2ccc3nc(-c4c(N)c5cc(N)ccc5[nH]c4=O)[nH]c3c2)CC1
IC50 [1]: 19 nM
EC50 [2]: 17 nM
IC50 [3]: 7 nM
IC50 [4]: 7 nM

CN1CCN(c2ccc3nc(-c4c(N)c5ccc(F)cc5[nH]c4=O)[nH]c3c2)CC1
IC50 [1]: 14 nM
EC50 [2]: 34 nM
IC50 [3]: 0.4 nM
IC50 [4]: 3 nM

Cc1ccc2nc(-c3c(N)c4ccccc4[nH]c3=O)[nH]c2c1
IC50 [1]: 220 nM
EC50 [2]: 64 nM
IC50 [3]: 30 nM
IC50 [4]: 80 nM

Cc1cc2nc(-c3c(N)c4ccccc4[nH]c3=O)[nH]c2cc1C
IC50 [1]: 210 nM
EC50 [2]: 150 nM
IC50 [3]: 12 nM
IC50 [4]: 70 nM

CN1CCN(C(=O)c2ccc3[nH]c(-c4c(N)c5ccccc5[nH]c4=O)nc3c2)CC1
IC50 [1]: 26 nM
EC50 [2]: 45 nM
IC50 [3]: 0.9 nM
IC50 [4]: 10 nM

CN1CCN(c2ccc3[nH]c(-c4c(N)c5c(F)cc(F)cc5[nH]c4=O)nc3c2)CC1
IC50 [1]: 130 nM
EC50 [2]: 80 nM
IC50 [3]: 5 nM
IC50 [4]: 30 nM

CN1CCN(c2ccc3nc(-c4c(N)c5cc(F)c(N(C)C)cc5[nH]c4=O)[nH]c3c2)CC1
IC50 [1]: 5300 nM
EC50 [2]: 3300 nM
IC50 [3]: 30 nM
IC50 [4]: 1800 nM

CN1CCN(c2cccc3[nH]c(=O)c(-c4nc5ccccc5[nH]4)c(N)c23)CC1
IC50 [1]: 17 nM
EC50 [2]: 340 nM
IC50 [3]: 0.3 nM
IC50 [4]: 1 nM

CNc1c(-c2nc3ccccc3[nH]2)c(=O)[nH]c2ccccc12
IC50 [1]: 220 nM
EC50 [2]: 280 nM
IC50 [3]: 30 nM
IC50 [4]: 120 nM

CN1CCN(c2ccc3[nH]c(-c4c(N)c5cc(F)c(F)cc5[nH]c4=O)nc3c2)CC1
IC50 [1]: 190 nM
EC50 [2]: 480 nM
IC50 [3]: 3 nM
IC50 [4]: 110 nM

CN1CCCN(c2ccc3[nH]c(-c4c(N)c5ccccc5[nH]c4=O)nc3c2)CC1
IC50 [1]: 66 nM
EC50 [2]: 25 nM
IC50 [3]: 5 nM
IC50 [4]: 20 nM

Cn1c(=O)c(-c2nc3ccccc3[nH]2)c(O)c2ccccc21
IC50 [1]: 5800 nM
EC50 [2]: 4600 nM
IC50 [3]: 19000 nM
IC50 [4]: > 25000 nM

CN1CCN(c2ccc3[nH]c(-c4c(N)c5cc(Cl)ccc5[nH]c4=O)nc3c2)CC1
IC50 [1]: 43 nM
EC50 [2]: 39 nM
IC50 [3]: 8 nM
IC50 [4]: 24 nM

O=c1[nH]c2ccccc2c(NCC2CCNCC2)c1-c1nc2ccccc2[nH]1
IC50 [1]: 940 nM
EC50 [2]: 100 nM
IC50 [3]: 0.9 nM
IC50 [4]: 550 nM

CN1CCN(c2ccc3nc(-c4c(N)c5cc(C(=O)NCc6ccccc6)ccc5[nH]c4=O)[nH]c3c2)CC1
IC50 [1]: 50 nM
EC50 [2]: 120 nM
IC50 [3]: 0.1 nM
IC50 [4]: 10 nM

Nc1c(-c2nc3ccc(OCCN4CCOCC4)cc3[nH]2)c(=O)[nH]c2ccccc12
IC50 [1]: 66 nM
EC50 [2]: 37 nM
IC50 [3]: 5 nM
IC50 [4]: 20 nM

CN1CCN(c2ccc3[nH]c(-c4c(N)c5cccc(F)c5[nH]c4=O)nc3c2)CC1
IC50 [1]: 560 nM
EC50 [2]: 420 nM
IC50 [3]: 14 nM
IC50 [4]: 190 nM

CN1CCN(c2ccc3nc(-c4c(N)c5c(F)cccc5[nH]c4=O)[nH]c3c2)CC1 [DOVITINIB]
Vd [5]: 12 L/kg
Cmax [6]: 670 ng/mL
bioavailability [7]: 73%
AUC [8]: 5670 ng·h/mL
inhibition in vivo at 30 mg/kg/day (MV4-11 [9]): 96%
half-life [10]: 3.5 h
half-life [11]: 2.7 h
Cmax [12]: 480 ng/mL
inhibition in vivo at 10 mg/kg/day (DU-145 [13]): 39%
ED50 [14]: 17 mg/kg
minimal effective dose ([14]; read-out: MED): 10 mg/kg
AUC [15]: 6000 ng·h/mL
clearance [16]: 42 mL/min/kg
EC50 [2]: 13 nM
inhibition in vivo at 100 mg/kg/day [17]: 95%
Vd [18]: 13 L/kg
inhibition in vivo at 10 mg/kg/day (MV4-11 [19]): 92%
ED50 (Mus musculus [20]): 3 mg/kg
inhibition in vivo at 5 mg/kg/day (MV4-11 [21]): 65%
bioavailability [22]: 77%
inhibition in vivo at 30 mg/kg/day (DU-145 [23]): 70%
inhibition in vivo at 30 mg/kg/day [24]: 55%
clearance [25]: 43 mL/min/kg
ED50 (DU-145 [26]): 23 mg/kg
minimal effective dose (DU-145 [26]; read-out: MED): 30 mg/kg
inhibition in vivo at 1 mg/kg/day (MV4-11 [27]): 23%
inhibition in vivo at 10 mg/kg/day [28]: 44%
inhibition in vivo at 100 mg/kg/day (DU-145 [29]): 86%
Activity (Mus musculus [30]): 54%
ED50 (MV4-11 [31]): 3 mg/kg
minimal effective dose (MV4-11 [31]; read-out: MED): 1 mg/kg
